Reference: ChEMBL document CHEMBL4828722, “The synthesis and bioactivity of pyrrolo[2,3-d]pyrimidine derivatives as tyrosine kinase inhibitors for NSCLC cells with EGFR mutations” (Eur J Med Chem, 2021)
pIC50: −log10 of the molar value.

System: not listed separately
Test: Cytotoxicity against human HBE cells assessed as reduction in cell viability measured after 48 hrs by CCK8 assay
Format: cell-based
Details: not given

Row | Structure (SMILES) | pIC50
1 | C=CC(=O)Nc1cccc(Oc2nc(Nc3ccc(N4CCN(C)CC4)cc3)nc3[nH]ccc23)c1 | 4.55
2 | C=CC(=O)Nc1cccc(Oc2nc(Nc3ccc(N4CCN(C)CC4)c(OC)c3)nc3[nH]ccc23)c1 | 4.90
3 | C=CC(=O)Nc1cccc(Oc2nc(Nc3ccc(N4CCN(C)CC4)c(Cl)c3)nc3[nH]ccc23)c1 | 5.06
4 | C=CC(=O)Nc1cccc(Oc2nc(Nc3ccc(N4CCN(C)CC4)c([N+](=O)[O-])c3)nc3c2ccn3COC(=O)C(C)(C)C)c1 | 5.44
5 | C=CC(=O)Nc1cccc(Oc2nc(Nc3ccc(N4CCN(C)CC4)c(N)c3)nc3c2ccn3COC(=O)C(C)(C)C)c1 | 5.02

System: BEAS-2B
Test: Cytotoxicity against human BEAS-2B cells assessed as reduction in cell viability measured after 48 hrs by CCK8 assay
Format: cell-based
Details: not given

Row | Structure (SMILES) | pIC50
6 | C=CC(=O)Nc1cccc(Oc2nc(Nc3ccc(N4CCN(C)CC4)cc3)nc3[nH]ccc23)c1 | 4.62
7 | C=CC(=O)Nc1cccc(Oc2nc(Nc3ccc(N4CCN(C)CC4)c(OC)c3)nc3[nH]ccc23)c1 | 5.00
8 | C=CC(=O)Nc1cccc(Oc2nc(Nc3ccc(N4CCN(C)CC4)c(Cl)c3)nc3[nH]ccc23)c1 | 5.42
9 | C=CC(=O)Nc1cccc(Oc2nc(Nc3ccc(N4CCN(C)CC4)c([N+](=O)[O-])c3)nc3c2ccn3COC(=O)C(C)(C)C)c1 | 5.24
10 | C=CC(=O)Nc1cccc(Oc2nc(Nc3ccc(N4CCN(C)CC4)c(N)c3)nc3c2ccn3COC(=O)C(C)(C)C)c1 | 5.02

System: NCI-H460
Test: Cytotoxicity against human NCI-H460 cells harboring wild type EGFR assessed as reduction in cell viability measured after 48 hrs by CCK8 assay
Format: functional, cell-based
Details: NCI-H460, 48 h

Row | Structure (SMILES) | pIC50
11 | C=CC(=O)Nc1cccc(Oc2nc(Nc3ccc(N4CCN(C)CC4)cc3)nc3[nH]ccc23)c1 | 4.44
12 | C=CC(=O)Nc1cccc(Oc2nc(Nc3ccc(N4CCN(C)CC4)c(OC)c3)nc3[nH]ccc23)c1 | 4.47
13 | C=CC(=O)Nc1cccc(Oc2nc(Nc3ccc(N4CCN(C)CC4)c(Cl)c3)nc3[nH]ccc23)c1 | 5.31
14 | C=CC(=O)Nc1cccc(Oc2nc(Nc3ccc(N4CCN(C)CC4)c([N+](=O)[O-])c3)nc3c2ccn3COC(=O)C(C)(C)C)c1 | 5.33
15 | C=CC(=O)Nc1cccc(Oc2nc(Nc3ccc(N4CCN(C)CC4)c(N)c3)nc3c2ccn3COC(=O)C(C)(C)C)c1 | 5.12

System: A549
Test: Cytotoxicity against human A549 cells harboring wild type EGFR assessed as reduction in cell viability measured after 48 hrs by CCK8 assay
Format: functional, cell-based
Details: A549, 48 h

Row | Structure (SMILES) | pIC50
16 | C=CC(=O)Nc1cccc(Oc2nc(Nc3ccc(N4CCN(C)CC4)cc3)nc3[nH]ccc23)c1 | 5.00
17 | C=CC(=O)Nc1cccc(Oc2nc(Nc3ccc(N4CCN(C)CC4)c(OC)c3)nc3[nH]ccc23)c1 | 4.69
18 | C=CC(=O)Nc1cccc(Oc2nc(Nc3ccc(N4CCN(C)CC4)c(Cl)c3)nc3[nH]ccc23)c1 | 5.77
19 | C=CC(=O)Nc1cccc(Oc2nc(Nc3ccc(N4CCN(C)CC4)c([N+](=O)[O-])c3)nc3c2ccn3COC(=O)C(C)(C)C)c1 | 5.51
20 | C=CC(=O)Nc1cccc(Oc2nc(Nc3ccc(N4CCN(C)CC4)c(N)c3)nc3c2ccn3COC(=O)C(C)(C)C)c1 | 4.97

System: NCI-H1975
Test: Cytotoxicity against human NCI-H1975 cells harboring EGFR L858R/T790M mutant assessed as reduction in cell viability measured after 48 hrs by CCK8 assay
Format: functional, cell-based
Details: NCI-H1975, 48 h

Row | Structure (SMILES) | pIC50
21 | C=CC(=O)Nc1cccc(Oc2nc(Nc3ccc(N4CCN(C)CC4)cc3)nc3[nH]ccc23)c1 | 4.66
22 | C=CC(=O)Nc1cccc(Oc2nc(Nc3ccc(N4CCN(C)CC4)c(OC)c3)nc3[nH]ccc23)c1 | 4.65
23 | C=CC(=O)Nc1cccc(Oc2nc(Nc3ccc(N4CCN(C)CC4)c(Cl)c3)nc3[nH]ccc23)c1 | 5.78
24 | C=CC(=O)Nc1cccc(Oc2nc(Nc3ccc(N4CCN(C)CC4)c([N+](=O)[O-])c3)nc3c2ccn3COC(=O)C(C)(C)C)c1 | 5.39
25 | C=CC(=O)Nc1cccc(Oc2nc(Nc3ccc(N4CCN(C)CC4)c(N)c3)nc3c2ccn3COC(=O)C(C)(C)C)c1 | 4.38

System: HCC827
Test: Cytotoxicity against human HCC827 cells harboring EGFR del E746-A750 mutant assessed as reduction in cell viability measured after 48 hrs by CCK8 assay
Format: functional, cell-based
Details: HCC827, 48 h

Row | Structure (SMILES) | pIC50
26 | C=CC(=O)Nc1cccc(Oc2nc(Nc3ccc(N4CCN(C)CC4)cc3)nc3[nH]ccc23)c1 | 6.62
27 | C=CC(=O)Nc1cccc(Oc2nc(Nc3ccc(N4CCN(C)CC4)c(OC)c3)nc3[nH]ccc23)c1 | 6.59
28 | C=CC(=O)Nc1cccc(Oc2nc(Nc3ccc(N4CCN(C)CC4)c(Cl)c3)nc3[nH]ccc23)c1 | 6.92
29 | C=CC(=O)Nc1cccc(Oc2nc(Nc3ccc(N4CCN(C)CC4)c([N+](=O)[O-])c3)nc3c2ccn3COC(=O)C(C)(C)C)c1 | 6.36
30 | C=CC(=O)Nc1cccc(Oc2nc(Nc3ccc(N4CCN(C)CC4)c(N)c3)nc3c2ccn3COC(=O)C(C)(C)C)c1 | 6.48

Molecular target: Epidermal growth factor receptor (Homo sapiens, UniProt P00533)
Sequence (P00533 whole entry): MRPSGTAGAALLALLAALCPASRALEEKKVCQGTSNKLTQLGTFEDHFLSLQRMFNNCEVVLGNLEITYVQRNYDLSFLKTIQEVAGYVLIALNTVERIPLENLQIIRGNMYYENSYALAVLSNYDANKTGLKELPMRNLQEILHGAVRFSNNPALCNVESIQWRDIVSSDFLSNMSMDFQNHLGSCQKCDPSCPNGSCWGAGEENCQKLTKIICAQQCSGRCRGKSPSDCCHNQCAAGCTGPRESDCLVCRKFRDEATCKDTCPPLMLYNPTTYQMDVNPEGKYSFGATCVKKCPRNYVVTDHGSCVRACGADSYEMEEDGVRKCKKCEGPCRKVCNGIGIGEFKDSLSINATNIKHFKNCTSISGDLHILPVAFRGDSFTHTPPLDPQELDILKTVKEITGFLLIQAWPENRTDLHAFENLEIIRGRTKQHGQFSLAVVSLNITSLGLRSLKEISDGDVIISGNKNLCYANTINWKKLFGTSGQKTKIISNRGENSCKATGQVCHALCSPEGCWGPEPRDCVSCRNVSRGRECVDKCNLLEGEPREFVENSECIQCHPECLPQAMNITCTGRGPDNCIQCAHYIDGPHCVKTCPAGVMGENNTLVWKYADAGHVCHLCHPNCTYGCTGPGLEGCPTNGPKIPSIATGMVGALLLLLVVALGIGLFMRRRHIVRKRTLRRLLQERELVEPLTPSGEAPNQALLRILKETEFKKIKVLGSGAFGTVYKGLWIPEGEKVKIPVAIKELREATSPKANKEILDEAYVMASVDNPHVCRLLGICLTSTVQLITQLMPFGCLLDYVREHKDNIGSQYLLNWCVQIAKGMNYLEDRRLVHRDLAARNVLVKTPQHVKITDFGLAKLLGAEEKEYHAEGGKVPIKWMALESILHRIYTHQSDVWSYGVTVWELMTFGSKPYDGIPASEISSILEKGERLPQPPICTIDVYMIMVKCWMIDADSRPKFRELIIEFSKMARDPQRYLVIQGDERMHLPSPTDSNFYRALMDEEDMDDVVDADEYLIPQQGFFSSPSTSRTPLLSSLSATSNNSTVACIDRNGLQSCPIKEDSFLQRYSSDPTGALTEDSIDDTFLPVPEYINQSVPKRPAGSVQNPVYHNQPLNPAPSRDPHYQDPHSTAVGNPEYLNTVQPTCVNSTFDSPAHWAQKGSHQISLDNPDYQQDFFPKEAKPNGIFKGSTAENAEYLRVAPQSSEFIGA
Test: Inhibition of wild type EGFR (unknown origin) at 80 nM pretreated with substrate for 10 mins followed by ATP addition measured after 60 mins by mobility shift assay relative to control
Details: not given

Row | inhibition [%] | Structure (SMILES)
31 | 32 | C=CC(=O)Nc1cccc(Oc2nc(Nc3ccc(N4CCN(C)CC4)c(OC)c3)nc3[nH]ccc23)c1
32 | 86 | C=CC(=O)Nc1cccc(Oc2nc(Nc3ccc(N4CCN(C)CC4)c(Cl)c3)nc3[nH]ccc23)c1
33 | 4.7 | C=CC(=O)Nc1cccc(Oc2nc(Nc3ccc(N4CCN(C)CC4)c([N+](=O)[O-])c3)nc3c2ccn3COC(=O)C(C)(C)C)c1
34 | 4.5 | C=CC(=O)Nc1cccc(Oc2nc(Nc3ccc(N4CCN(C)CC4)c(N)c3)nc3c2ccn3COC(=O)C(C)(C)C)c1

System: Epidermal growth factor receptor (Homo sapiens), P00533 [L858R,T790M]
Sequence (P00533 whole entry T790M/L858R, looked up): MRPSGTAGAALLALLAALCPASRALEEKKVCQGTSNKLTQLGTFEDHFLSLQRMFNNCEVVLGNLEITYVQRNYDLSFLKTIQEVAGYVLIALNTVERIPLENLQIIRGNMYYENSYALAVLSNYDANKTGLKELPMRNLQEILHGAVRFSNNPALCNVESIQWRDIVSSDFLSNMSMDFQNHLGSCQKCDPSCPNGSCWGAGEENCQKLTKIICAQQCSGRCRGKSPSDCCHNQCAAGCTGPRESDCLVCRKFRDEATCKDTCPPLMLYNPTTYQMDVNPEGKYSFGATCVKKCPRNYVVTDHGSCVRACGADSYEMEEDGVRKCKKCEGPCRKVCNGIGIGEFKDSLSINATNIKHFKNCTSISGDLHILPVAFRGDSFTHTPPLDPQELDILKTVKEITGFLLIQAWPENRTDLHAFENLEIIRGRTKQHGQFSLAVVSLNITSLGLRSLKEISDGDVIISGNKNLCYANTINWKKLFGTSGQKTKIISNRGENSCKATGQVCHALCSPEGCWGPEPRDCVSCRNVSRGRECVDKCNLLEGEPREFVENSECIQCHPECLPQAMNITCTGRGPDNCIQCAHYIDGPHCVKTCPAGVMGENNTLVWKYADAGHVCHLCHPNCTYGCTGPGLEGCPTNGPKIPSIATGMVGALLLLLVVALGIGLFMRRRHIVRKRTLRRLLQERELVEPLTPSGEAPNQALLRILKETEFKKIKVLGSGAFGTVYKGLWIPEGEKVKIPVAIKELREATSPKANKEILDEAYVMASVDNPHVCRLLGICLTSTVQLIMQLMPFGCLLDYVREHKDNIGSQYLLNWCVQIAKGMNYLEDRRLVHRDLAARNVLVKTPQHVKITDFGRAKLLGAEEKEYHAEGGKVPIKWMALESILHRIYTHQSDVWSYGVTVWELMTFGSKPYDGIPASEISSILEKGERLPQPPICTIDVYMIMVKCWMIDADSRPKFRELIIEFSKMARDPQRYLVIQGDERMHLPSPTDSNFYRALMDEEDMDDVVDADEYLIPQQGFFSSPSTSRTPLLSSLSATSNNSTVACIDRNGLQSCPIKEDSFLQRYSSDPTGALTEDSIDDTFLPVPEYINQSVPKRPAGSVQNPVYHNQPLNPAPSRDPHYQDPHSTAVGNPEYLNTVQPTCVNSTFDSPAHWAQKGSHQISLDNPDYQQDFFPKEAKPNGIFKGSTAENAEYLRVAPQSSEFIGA
Test: Inhibition of […] EGFR L858R/T790M mutant (unknown origin) at 2 nM pretreated with substrate for 10 mins followed by ATP addition measured after 60 mins by mobility shift assay relative to control
Details: not given

Row | inhibition [%] | Structure (SMILES)
35 | 42 | C=CC(=O)Nc1cccc(Oc2nc(Nc3ccc(N4CCN(C)CC4)c(OC)c3)nc3[nH]ccc23)c1
36 | 92 | C=CC(=O)Nc1cccc(Oc2nc(Nc3ccc(N4CCN(C)CC4)c(Cl)c3)nc3[nH]ccc23)c1
37 | 3.5 | C=CC(=O)Nc1cccc(Oc2nc(Nc3ccc(N4CCN(C)CC4)c([N+](=O)[O-])c3)nc3c2ccn3COC(=O)C(C)(C)C)c1
38 | 2.4 | C=CC(=O)Nc1cccc(Oc2nc(Nc3ccc(N4CCN(C)CC4)c(N)c3)nc3c2ccn3COC(=O)C(C)(C)C)c1

System: Epidermal growth factor receptor (Homo sapiens), P00533 [UNDEFINED MUTATION]
Test: Inhibition of […] EGFR Del E746/A750 mutant (unknown origin) at 2 nM pretreated with substrate for 10 mins followed by ATP addition measured after 60 mins by mobility shift assay relative to control
Details: not given

Row | inhibition [%] | Structure (SMILES)
39 | 25 | C=CC(=O)Nc1cccc(Oc2nc(Nc3ccc(N4CCN(C)CC4)c(OC)c3)nc3[nH]ccc23)c1
40 | 44 | C=CC(=O)Nc1cccc(Oc2nc(Nc3ccc(N4CCN(C)CC4)c(Cl)c3)nc3[nH]ccc23)c1
41 | 0.41 | C=CC(=O)Nc1cccc(Oc2nc(Nc3ccc(N4CCN(C)CC4)c([N+](=O)[O-])c3)nc3c2ccn3COC(=O)C(C)(C)C)c1
42 | 11 | C=CC(=O)Nc1cccc(Oc2nc(Nc3ccc(N4CCN(C)CC4)c(N)c3)nc3c2ccn3COC(=O)C(C)(C)C)c1

System: Epidermal growth factor receptor (Homo sapiens), P00533 [L858R]
Test: Inhibition of […] EGFR L858R mutant (unknown origin) at 2 nM pretreated with substrate for 10 mins followed by ATP addition measured after 60 mins by mobility shift assay relative to control
Details: not given

Row | inhibition [%] | Structure (SMILES)
43 | 31 | C=CC(=O)Nc1cccc(Oc2nc(Nc3ccc(N4CCN(C)CC4)c(OC)c3)nc3[nH]ccc23)c1
44 | 41 | C=CC(=O)Nc1cccc(Oc2nc(Nc3ccc(N4CCN(C)CC4)c(Cl)c3)nc3[nH]ccc23)c1
45 | 13 | C=CC(=O)Nc1cccc(Oc2nc(Nc3ccc(N4CCN(C)CC4)c([N+](=O)[O-])c3)nc3c2ccn3COC(=O)C(C)(C)C)c1
46 | 9.7 | C=CC(=O)Nc1cccc(Oc2nc(Nc3ccc(N4CCN(C)CC4)c(N)c3)nc3c2ccn3COC(=O)C(C)(C)C)c1

System: Epidermal growth factor receptor (Homo sapiens), P00533 [T790M]
Sequence (P00533 whole entry T790M): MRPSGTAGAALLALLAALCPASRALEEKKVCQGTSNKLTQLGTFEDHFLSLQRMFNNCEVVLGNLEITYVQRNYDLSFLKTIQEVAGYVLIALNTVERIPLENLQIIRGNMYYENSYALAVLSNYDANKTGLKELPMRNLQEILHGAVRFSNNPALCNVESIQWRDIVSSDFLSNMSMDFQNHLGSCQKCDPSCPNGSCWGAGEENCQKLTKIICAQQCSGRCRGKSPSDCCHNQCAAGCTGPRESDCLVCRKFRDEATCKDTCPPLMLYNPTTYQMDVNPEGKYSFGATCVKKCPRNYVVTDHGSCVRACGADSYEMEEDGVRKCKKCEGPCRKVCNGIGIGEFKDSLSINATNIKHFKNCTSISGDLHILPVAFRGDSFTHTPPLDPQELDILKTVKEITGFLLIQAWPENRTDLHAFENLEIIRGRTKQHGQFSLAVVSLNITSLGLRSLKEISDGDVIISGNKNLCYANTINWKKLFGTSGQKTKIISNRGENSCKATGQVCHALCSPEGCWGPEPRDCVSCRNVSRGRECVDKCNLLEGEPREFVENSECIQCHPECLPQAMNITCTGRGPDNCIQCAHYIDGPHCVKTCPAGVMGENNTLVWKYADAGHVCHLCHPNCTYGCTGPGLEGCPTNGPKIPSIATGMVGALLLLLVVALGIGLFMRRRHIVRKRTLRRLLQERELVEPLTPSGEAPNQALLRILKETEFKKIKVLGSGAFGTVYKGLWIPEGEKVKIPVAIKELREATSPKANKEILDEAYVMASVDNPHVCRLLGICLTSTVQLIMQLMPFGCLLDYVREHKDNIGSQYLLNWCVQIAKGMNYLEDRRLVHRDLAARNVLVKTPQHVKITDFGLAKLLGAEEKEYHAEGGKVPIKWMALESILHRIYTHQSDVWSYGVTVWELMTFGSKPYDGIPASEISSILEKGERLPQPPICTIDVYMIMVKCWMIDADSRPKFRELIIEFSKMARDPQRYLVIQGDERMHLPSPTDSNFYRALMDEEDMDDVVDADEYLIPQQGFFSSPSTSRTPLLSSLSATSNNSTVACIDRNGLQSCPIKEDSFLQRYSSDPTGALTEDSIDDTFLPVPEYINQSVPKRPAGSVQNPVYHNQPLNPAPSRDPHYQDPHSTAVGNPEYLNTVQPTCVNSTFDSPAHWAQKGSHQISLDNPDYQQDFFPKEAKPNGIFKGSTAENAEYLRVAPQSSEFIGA
Test: Inhibition of […] EGFR T790M mutant (unknown origin) at 2 nM pretreated with substrate for 10 mins followed by ATP addition measured after 60 mins by mobility shift assay relative to control
Details: not given

Row | inhibition [%] | Structure (SMILES)
47 | 97 | C=CC(=O)Nc1cccc(Oc2nc(Nc3ccc(N4CCN(C)CC4)c(OC)c3)nc3[nH]ccc23)c1
48 | 98 | C=CC(=O)Nc1cccc(Oc2nc(Nc3ccc(N4CCN(C)CC4)c(Cl)c3)nc3[nH]ccc23)c1
49 | 7.9 | C=CC(=O)Nc1cccc(Oc2nc(Nc3ccc(N4CCN(C)CC4)c([N+](=O)[O-])c3)nc3c2ccn3COC(=O)C(C)(C)C)c1
50 | 7.3 | C=CC(=O)Nc1cccc(Oc2nc(Nc3ccc(N4CCN(C)CC4)c(N)c3)nc3c2ccn3COC(=O)C(C)(C)C)c1

System: Epidermal growth factor receptor (Homo sapiens), P00533 [C797S]
Sequence (P00533 whole entry C797S): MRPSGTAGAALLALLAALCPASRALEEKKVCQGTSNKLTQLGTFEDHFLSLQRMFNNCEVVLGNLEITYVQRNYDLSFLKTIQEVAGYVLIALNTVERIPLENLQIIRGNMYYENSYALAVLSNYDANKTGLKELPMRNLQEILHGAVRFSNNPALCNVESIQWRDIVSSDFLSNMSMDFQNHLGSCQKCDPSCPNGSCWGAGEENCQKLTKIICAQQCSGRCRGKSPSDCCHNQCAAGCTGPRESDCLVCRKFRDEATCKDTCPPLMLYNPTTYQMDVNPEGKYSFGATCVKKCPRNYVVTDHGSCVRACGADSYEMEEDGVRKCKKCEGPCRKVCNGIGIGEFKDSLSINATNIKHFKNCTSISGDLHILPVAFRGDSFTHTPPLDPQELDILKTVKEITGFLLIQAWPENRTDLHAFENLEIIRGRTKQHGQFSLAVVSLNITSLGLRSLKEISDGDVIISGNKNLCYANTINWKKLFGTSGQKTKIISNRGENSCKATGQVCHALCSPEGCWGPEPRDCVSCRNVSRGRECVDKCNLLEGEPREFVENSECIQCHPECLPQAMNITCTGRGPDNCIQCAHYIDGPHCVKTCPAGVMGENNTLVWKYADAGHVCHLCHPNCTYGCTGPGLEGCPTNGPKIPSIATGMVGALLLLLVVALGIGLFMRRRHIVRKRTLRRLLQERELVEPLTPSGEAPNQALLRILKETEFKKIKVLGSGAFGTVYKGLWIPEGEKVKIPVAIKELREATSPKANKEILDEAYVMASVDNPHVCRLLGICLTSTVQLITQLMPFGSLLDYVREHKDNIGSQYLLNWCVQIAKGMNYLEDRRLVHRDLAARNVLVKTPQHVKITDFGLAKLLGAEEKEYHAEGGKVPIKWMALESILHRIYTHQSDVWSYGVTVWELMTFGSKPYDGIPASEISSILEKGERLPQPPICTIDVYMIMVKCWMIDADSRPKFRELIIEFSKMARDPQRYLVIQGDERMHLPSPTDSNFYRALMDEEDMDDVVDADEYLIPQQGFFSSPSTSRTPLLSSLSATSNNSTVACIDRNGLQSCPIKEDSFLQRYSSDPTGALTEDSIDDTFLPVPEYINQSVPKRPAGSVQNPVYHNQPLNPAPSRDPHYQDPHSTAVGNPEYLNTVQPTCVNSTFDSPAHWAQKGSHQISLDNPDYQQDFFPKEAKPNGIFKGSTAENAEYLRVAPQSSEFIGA
Test: Inhibition of […] EGFR C797S mutant (unknown origin) at 2 nM pretreated with substrate for 10 mins followed by ATP addition measured after 60 mins by mobility shift assay relative to control
Details: not given

Row | inhibition [%] | Structure (SMILES)
51 | 13 | C=CC(=O)Nc1cccc(Oc2nc(Nc3ccc(N4CCN(C)CC4)c(OC)c3)nc3[nH]ccc23)c1
52 | 4.8 | C=CC(=O)Nc1cccc(Oc2nc(Nc3ccc(N4CCN(C)CC4)c(Cl)c3)nc3[nH]ccc23)c1
53 | 6.3 | C=CC(=O)Nc1cccc(Oc2nc(Nc3ccc(N4CCN(C)CC4)c([N+](=O)[O-])c3)nc3c2ccn3COC(=O)C(C)(C)C)c1
54 | 2.2 | C=CC(=O)Nc1cccc(Oc2nc(Nc3ccc(N4CCN(C)CC4)c(N)c3)nc3c2ccn3COC(=O)C(C)(C)C)c1

System: Epidermal growth factor receptor (Homo sapiens), P00533 [L858R,T790M,C797S]
Test: Inhibition of […] EGFR L858R/T790M/C797S mutant (unknown origin) at 2 nM pretreated with substrate for 10 mins followed by ATP addition measured after 60 mins by mobility shift assay relative to control
Details: not given

Row | inhibition [%] | Structure (SMILES)
55 | 7.8 | C=CC(=O)Nc1cccc(Oc2nc(Nc3ccc(N4CCN(C)CC4)c(OC)c3)nc3[nH]ccc23)c1
56 | 9.2 | C=CC(=O)Nc1cccc(Oc2nc(Nc3ccc(N4CCN(C)CC4)c(Cl)c3)nc3[nH]ccc23)c1
57 | 8.4 | C=CC(=O)Nc1cccc(Oc2nc(Nc3ccc(N4CCN(C)CC4)c([N+](=O)[O-])c3)nc3c2ccn3COC(=O)C(C)(C)C)c1
58 | 3.6 | C=CC(=O)Nc1cccc(Oc2nc(Nc3ccc(N4CCN(C)CC4)c(N)c3)nc3c2ccn3COC(=O)C(C)(C)C)c1
